US20050232912A1, “Enzyme phosphorylating ser46 of p53” (priority 2001, published 2005)

System: Human breast cancer cells MCF-7
Test: Ser46-phosphorylating activity of nuclear extracts from doxorubicin-treated cells, Western blotting with anti-p53-phosphorylated-Ser46 antibodies
Format: cell-based
Details: MCF-7 cells, 3 μM doxorubicin, during 12 hours after treatment, substrate GST-p53
Method: Human breast cancer cells MCF-7 (hereinafter called “MCF-7”, ATCC) were cultured in DMEM medium (Sigma) containing 10% fetal bovine serum (GIBCO BRL) on 15 cm^2 dishes (Corning) up to 90% confluent state. These cells were treated with final 3 μM doxorubicin (Sigma, the same to adriamycin) by addition of its aqueous solution to the medium. After allowed to stand in an incubator, the cells were harvested at various time points.
The harvested cells from one dish were suspended and solubilized in 500 μl of cytoplasm extraction buffer (10 mM HEPES pH7.9, 2 mM MgCl2, 0.1 mM EDTA, 0.1 mM EGTA, 1% Nonidet NP-40, DTT 1 mM, Na3VO4 1 mM, NaF 5 mM, PMSF 0.5 mM, KCl 10 mM, leupeptin 5 μg/ml, antipain 5 μg/ml, chymostatin 5 μg/ml, pepstatinA 2 μg/ml). The solbilized cells were centrifuged at 15,000 rpm for 15 min. The pellets obtained were mixed with 100 μl nuclear extraction buffer (10 mM HEPES pH7.9, 2 mM MgCl2, 0.1 mM EDTA, 0.1 mM EGTA, 1% Nonidet NP-40, DTT 1 mM, Na3VO4 1 mM, NaF 5 mM, PMSF 0.5 mM, KCl 10 mM, NaCl 500 mM, leupeptin 5 μg/ml, antipain 5 μg/ml, chymostatin 5 μg/ml, pepstatinA 2 μg/ml), suspended well and centrifuged at 15,000 rpm for 15 min. […]
Next, the enzyme activity of the nuclear extracts was assayed using the antibodies. […] The phosphorylation of GST-p53 was detected in Western blotting probed with anti-p53-phosphorylated-Ser46 antibodies.

COc1cccc2c1C(=O)c1c(O)c3c(c(O)c1C2=O)C[C@@](O)(C(=O)CO)C[C@@H]3O[C@H]1C[C@H](N)[C@H](O)[C@H](C)O1 [doxorubicin]
activation of enzyme phosphorylating Ser46 of p53: greatly induced
